Data as given in patent US9381238B2 (priority 2010, dated 2016).

Key:
[1] = system: H3N2 A/Moscow/10/99 virus; assay: Copies of viral genome M/ml in supernatant of infected A549 cells by real-time RT-qPCR; type: cell-based, H3N2 A/Moscow/10/99 virus in human A549 cells; conditions: for times more copies of genome in supernatant than control without Nutlin-3: A549, 10 hpi (single viral cycle); for times more copies M/ml of supernatant than the control: MOI 10^−3, pretreatment
Description: (§1) FIGS. 2 to 7 show the observed amounts of copies of viral genome M/ml in the culture supernatant (M for the segment of viral genome encoding the M1 and M2 viral proteins), with various culture conditions and after various infection times.
(§2) For all the following examples, the experiments were carried out at a temperature of 37° C. The culture medium used is DMEM (Ref 41966, Gibco), supplemented with trypsin (1 ug/mL, Sigma) during the infections.
In order to gain a more precise idea, the quantification of the number of copies of viral genome M/ml of supernatant was then carried out, by extraction of the viral RNAs and quantification by real-time RT-qPCR (FIG. 2B). At 48 hpi, 6.66×10^6 copies M/ml were measured in the absence of Nutlin-3, compared with 2.44×10^8 copies M/ml in the presence of Nutlin-3, i.e. a gain of more than 36-fold in terms of viral production. The same calculation performed at 72 hpi indicates a gain of 88-fold in favor of the conditions where Nutlin-3 is used.
The A549 cells were infected with various amounts of virus (MOI 0.01, 0.1 and 1), in the presence or absence of Nutlin-3, and the amount of copies M/ml of supernatant was measured by RT-qPCR after a single viral cycle (10 hpi) or after several viral cycles (28 hpi). The cells were brought into contact with Nutlin-3, either 14 h before the infection (T=−14 h), or immediately at the time of infection (T=0 h) (FIG. 3). In any event, the Nutlin-3 is added in one go.
A similar experiment was carried out with an MOI of 10^−3, while modifying the time at which the pretreatment is carried out (14 h compared with 10 h before infection). At 48 hpi, Nutlin-3 makes it possible to obtain 1.5, 5.7 and 40 times more copies M/ml of supernatant than the control for respective concentrations of 0.1, 1 and 10 μM (FIG. 4).
This molecule was used at concentrations of 2 and 20 μM with an MOI of 10^−3.

[2] = system: H3N2 A/Moscow/10/99 virus; assay: Copies of viral genome M/ml in supernatant of infected MDCK cells by RT-qPCR; type: cell-based, H3N2 A/Moscow/10/99 virus in MDCK cells (dog); conditions: MOI 10^−3, 0.1, 1 and 10 μM
Description: as §1, §2
The MDCK line (ATCC No. CCL-34) is the most widely used line for the laboratory production of influenza virus. It is a cell line which is also registered and with which batches of vaccine have been produced by Novartis and Solvay.
At 24 hpi, up to 19 times more copies of genome M/ml are obtained in the presence of Nutlin-3 compared with the control.

[3] = system: H3N2 A/Moscow/10/99 virus; assay: Cytopathic effects induced by influenza virus on A549 cell layer (photon microscopy); type: cell-based, H3N2 A/Moscow/10/99 virus in human A549 cells; conditions: A549, 10 μM, MOI 2×10^−3, from 24 hpi onward, molecule added 14 h before infection and retained (FIG. 1)
Description: as §2
A549 cells (ATCC, American Type Culture Collection CCL185) are cells derived from a lung carcinoma. […] Several ex-vivo studies on lung tissues from infected patients have shown that epithelial cells of this type probably constitute the primary influenza virus infection site (Nicholls et al. Nat. Med. 2007 February; 13(2):147-9, van Riel et al. Science. 2006 Apr. 21; 312(5772):399). These cells are therefore considered to be relevant for studying influenza viruses and are, consequently, very widely used in the field of fundamental research on influenza viruses.
The observation and monitoring of the cytopathic effects induced by the virus over time generally allow a first evaluation of the degree of infection of the cell layer. The cytopathic effect induced by the virus is characterized in particular by fusion of the infected cells with one another, forming multinucleated cell structures (syncytia). By photon microscopy, observation of the amount and of the scale of these structures on the cell layer makes it possible to obtain an estimation of the degree of infection.

[4] = system: H3N2 A/Moscow/10/99 virus; assay: Infectious titer (TCID50/ml) in supernatant of infected A549 cells; type: cell-based, H3N2 A/Moscow/10/99 virus in human A549 cells; conditions: A549, from 24 hpi onward, presence vs absence of Nutlin-3 (FIG. 2A)

SMILES	times more copies of genome M in the supernatant compared with the control ([1]; A549, 48 hpi, MOI 10^−3, 2 μM (FIG. 6))	times more copies of genome M in the supernatant compared with the control ([1]; A549, 72 hpi, MOI 10^−3, 20 μM (FIG. 6))	times more copies of genome M/ml compared with the control ([2]; 24 hpi, pretreatment 14 h before infection (FIG. 5))	effect on viral titer (copies of genome M/ml) in cell supernatants ([2]; pretreatment 14 h before infection, after several consecutive viral cycles (FIG. 5))	cytopathic effect compared with infected cells without Nutlin-3 [3]	gain in infectious titer (TCID50/ml) in the supernatant [4]	times more copies of genome in supernatant than control without Nutlin-3 ([1]; treatment started at T=0, MOI 0.1 (FIG. 3)) [times]	times more copies of genome in supernatant than control without Nutlin-3 ([1]; treatment started at T=0, MOI 1 (FIG. 3)) [times]	gain in viral production (copies M/ml) vs absence of Nutlin-3 ([1]; A549, 48 hpi (FIG. 2B))	times more copies M/ml of supernatant than the control ([1]; A549, 48 hpi, 0.1 μM (FIG. 4)) [times]	times more copies M/ml of supernatant than the control ([1]; A549, 48 hpi, 1 μM (FIG. 4)) [times]	times more copies M/ml of supernatant than the control ([1]; A549, 48 hpi, 10 μM (FIG. 4)) [times]	copies of viral genome M/ml of supernatant ([1]; A549, 48 hpi, in the presence of Nutlin-3 (FIG. 2B))	gain in viral production (copies M/ml) vs absence of Nutlin-3 ([1]; A549, 72 hpi (FIG. 2B)) [fold]
Cc1ccc2ccc(C(Nc3ccccc3)c3ccccc3)c(O)c2n1 (centres unmarked) [NSC66811, 2-methyl-7-[phenyl(phenylamino)methyl]-8-quinolinol]	approximately 6 times	approximately 5 times	–	–	–	–	–	–	–	–	–	–	–	–
COc1ccc(C2=NC(c3ccc(Cl)cc3)C(c3ccc(Cl)cc3)N2C(=O)N2CCNC(=O)C2)c(OC(C)C)c1 (racemic) [Nutlin-3, (±)-4-[4,5-bis(4-chlorophenyl)-2-(2-isopropoxy-4-methoxy-phenyl)-4,5-dihydroimidazole-1-carbonyl]piperazin-2-one]	–	–	up to 19 times	greatly increases the viral titer	more marked cytopathic effect	gain of one log 10 difference	11	50	more than 36 fold	1.5	5.7	40	2.44×10^8 copies M/ml	88
